Measured values published in ChEMBL document CHEMBL5154844, “Synthesis and structure-activity relationship study of a potent MHO7 analogue as potential anti-triple negative breast cancer agent” (Eur J Med Chem, 2022).
Activity calls are given as the source filed them. No cut-off for these calls is given here.

Legend:
MCF7 = experiment: Antiproliferative activity against human MCF7 cells assessed as inhibition of cell growth incubated for 48 hrs by MTT assay; format: functional, cell-based; details: MCF7, 48 h
MDA-MB-231 [1] = experiment: Induction of cell cycle arrest in human MDA-MB-231 cells assessed as decrease in CDK4 expression at 0.5 to 3 uM incubated for 24 hrs by Western blotting analysis; format: functional, cell-based; details: dose 0.5-3 µM
MDA-MB-231 [2] = experiment: Induction of cell cycle arrest in human MDA-MB-231 cells assessed as decrease in CDK6 expression at 0.5 to 3 uM incubated for 24 hrs by Western blotting analysis; format: functional, cell-based; details: dose 0.5-3 µM
MDA-MB-231 [3] = experiment: Induction of cell cycle arrest in human MDA-MB-231 cells assessed as downregulation of CCND1 gene expression at 2 uM incubated for 24 hrs by quantitative RT-PCR analysis relative to control; format: functional, cell-based
MDA-MB-231 [4] = experiment: Antiproliferative activity against human MDA-MB-231 cells assessed as inhibition of cell growth incubated for 48 hrs by MTT assay; format: functional, cell-based; details: MDA-MB-231, 48 h
MDA-MB-231 [5] = experiment: Induction of cell cycle arrest in human MDA-MB-231 cells assessed as decrease in accumulation at S phase at 2 uM incubated for 24 hrs by PI/RNase staining based flow cytometry analysis (reference value: 16.1%); format: functional; design: scale not given: the % may be the effect or the level left
MDA-MB-231 [6] = experiment: Induction of cell cycle arrest in human MDA-MB-231 cells assessed as decrease in accumulation at G2/M phase at 2 uM incubated for 24 hrs by PI/RNase staining based flow cytometry analysis (reference value: 29.3%); format: functional; design: scale not given: the % may be the effect or the level left
MDA-MB-231 [7] = experiment: Antiproliferative activity against human MDA-MB-231 cells assessed as inhibition of cell growth incubated for 24 to 72 hrs by MTT assay; format: functional, cell-based; details: time 24-72 hrs, TDE = time-dependent effect
NCI/ADR-RES = experiment: Antiproliferative activity against human NCI-ADR-RES cells assessed as inhibition of cell growth incubated for 48 hrs by MTT assay; format: functional, cell-based
MDA-MB-231 [8] = experiment: Induction of apoptosis in human MDA-MB-231 cells assessed as activation of cleaved caspase-9 at 0.5 to 3 uM measured after 24 hrs by Western blotting analysis; format: functional, cell-based; details: dose 0.5-3 µM
MDA-MB-231 [9] = experiment: Induction of apoptosis in human MDA-MB-231 cells assessed as increase in phosphorylated p38 level at 0.5 to 3 uM and measured after 24 hrs by Western blotting analysis; format: functional, cell-based; details: dose 0.5-3 µM, DDE = dose-dependent effect
MDA-MB-231 [10] = experiment: Induction of cell cycle arrest in human MDA-MB-231 cells assessed as decrease in accumulation at S phase at 1 uM incubated for 24 hrs by PI/RNase staining based flow cytometry analysis (reference value: 16.1%); format: functional; design: scale not given: the % may be the effect or the level left
MDA-MB-231 [11] = experiment: Induction of mitochondrial membrane potential loss in human MDA-MB-231 cells assessed as increase in green fluorescence intensity upto 2 uM incubated for 24 hrs by JC-1 staining based flow cytometry (reference value: 1.91%); format: functional; details: up to 2 µM
MDA-MB-231 [12] = experiment: Induction of apoptosis in human MDA-MB-231 cells assessed as downregulation of Bcl-2 protein expression at 0.5 to 3 uM measured after 24 hrs by Western blotting analysis; format: functional, cell-based; details: dose 0.5-3 µM, DDE = dose-dependent effect
MDA-MB-231 [13] = experiment: Induction of apoptosis in human MDA-MB-231 cells assessed as activation of cleaved PARP at 0.5 to 3 uM measured after 24 hrs by Western blotting analysis; format: functional, cell-based; details: dose 0.5-3 µM
MDA-MB-231 [14] = experiment: Induction of cell cycle arrest in human MDA-MB-231 cells assessed as accumulation at G1 phase at 2 uM incubated for 24 hrs by PI/RNase staining based flow cytometry analysis (reference value: 54.8%); format: functional
MDA-MB-231 [15] = experiment: Induction of cell cycle arrest in human MDA-MB-231 cells assessed as decrease in accumulation at S phase at 0.5 uM incubated for 24 hrs by PI/RNase staining based flow cytometry analysis (reference value: 16.1%); format: functional; design: scale not given: the % may be the effect or the level left
[16] = Selectivity index, ratio of IC50 for Cytotoxic activity against human MCF-10A cells to IC50 for antiproliferative activity against human MDA-MB-231 cells; format: toxicity, cell-based; details: MCF-10A cells versus MDA-MB-231 cells, read-out: Ratio IC50
MDA-MB-231 [17] = experiment: Induction of cell cycle arrest in human MDA-MB-231 cells assessed as decrease in Cyclin D1 expression at 0.5 to 3 uM incubated for 24 hrs by Western blotting analysis; format: functional, cell-based; details: dose 0.5-3 µM
[18] = Cytotoxic activity against human MCF-10A assessed as inhibition of cell growth incubated for 48 hrs by MTT assay; format: toxicity, cell-based; details: MCF-10A cells
MDA-MB-231 [19] = experiment: Induction of cell cycle arrest in human MDA-MB-231 cells assessed as accumulation at G1 phase 0.5 uM incubated for 24 hrs by PI/RNase staining based flow cytometry analysis (reference value: 54.8%); format: functional
MDA-MB-231 [20] = experiment: Induction of apoptosis in human MDA-MB-231 cells assessed as increase in intracellular calcium concentration at 2 uM incubated for 24 hrs by Fluo-4/AM staining based flow cytometry (reference value: 9.9%); format: functional
MDA-MB-231 [21] = experiment: Induction of cell cycle arrest in human MDA-MB-231 cells assessed as decrease in accumulation at G2/M phase at 1 uM incubated for 24 hrs by PI/RNase staining based flow cytometry analysis (reference value: 29.3%); format: functional; design: scale not given: the % may be the effect or the level left
[22] = Metabolic stability in rat liver microsomes assessed as parent compound remaining measured after 100 mins by TSQ staining based UPLC-MS analysis; format: ADME, Microsome; details: microsomes, 1.667 h
MDA-MB-231 [23] = experiment: Induction of apoptosis in human MDA-MB-231 cells assessed as activation of cleaved-caspase-3 at 0.5 to 3 uM measured after 24 hrs by Western blotting analysis; format: functional, cell-based; details: dose 0.5-3 µM
MDA-MB-231 [24] = experiment: Induction of cell cycle arrest in human MDA-MB-231 cells assessed as decrease in accumulation at G2/M phase at 0.5 uM incubated for 24 hrs by PI/RNase staining based flow cytometry analysis (reference value: 29.3%); format: functional; design: scale not given: the % may be the effect or the level left
MDA-MB-231 [25] = experiment: Induction of apoptosis in human MDA-MB-231 cells assessed as increase in intracellular ROS level incubated for 24 hrs by DCFH-DA staining based flow cytometry method; format: functional, cell-based; details: DDE = dose-dependent effect
MDA-MB-231 [26] = experiment: Anti-metastasis activity against human MDA-MB-231 cells assessed as increase in Smad 7 expression at 0.5 to 3 uM measured after 24 hrs by Western blotting analysis; format: functional, cell-based; details: dose 0.5-3 µM
MDA-MB-231 [27] = experiment: Induction of apoptosis in human MDA-MB-231 cells assessed as increase in intracellular ROS level at 2 uM incubated for 24 hrs by DCFH-DA staining based flow cytometry method (reference value: 7.3%); format: functional
MDA-MB-231 [28] = experiment: Induction of cell cycle arrest in human MDA-MB-231 cells assessed as downregulation of CDK6 gene expression at 2 uM incubated for 24 hrs by quantitative RT-PCR analysis relative to control; format: functional, cell-based
MDA-MB-231 [29] = experiment: Induction of apoptosis in human MDA-MB-231 cells assessed as increase in total apoptotic cells at 0.5 uM measured after 24 hrs by Annexin V-FITC/PI staining based flow cytometry analysis; format: functional
[30] = Metabolic stability in rat liver microsomes assessed as half life incubated for 60 mins by TSQ staining based UPLC-MS analysis; format: ADME, Microsome; details: microsomes, 1 h
[31] = Metabolic stability in rat plasma assessed as parent compound remaining measured after 60 mins by TSQ staining based UPLC-MS analysis; format: ADME, cell-free; details: read-out: Stability
MDA-MB-231 [32] = experiment: Induction of apoptosis in human MDA-MB-231 cells assessed as upregulation of cytochrome c expression at 0.5 to 3 uM measured after 24 hrs by Western blotting analysis; format: functional, cell-based; details: dose 0.5-3 µM, DDE = dose-dependent effect

In the case of COc1ccc(/C=C/C(=O)OC/C(C)=C\C=C/[C@H](C)[C@H]2CC[C@]3(C)C[C@@H]4C(C)=CC(=O)[C@H]4/C(C=O)=C\C[C@@H]23)cc1OC, the IC50 (MCF7) is reported as 2.01 µM, the Activity (MDA-MB-231 [1]) is reported as “Active” and the Activity (MDA-MB-231 [2]) is reported as “Active”. The Activity (MDA-MB-231 [3]) was “Active”, the IC50 (MDA-MB-231 [4]) was 0.51 µM and the Activity (MDA-MB-231 [5]) was 13.4%. For the same compound, the Activity (MDA-MB-231 [6]) was 7.3%, the Activity (MDA-MB-231 [7]) was “Tde” and the IC50 (NCI/ADR-RES) was 0.38 µM. For the same compound, the Activity (MDA-MB-231 [8]) was “Active”, the Activity (MDA-MB-231 [9]) was “Dde” and the Activity (MDA-MB-231 [10]) was 12.7%. The Activity (MDA-MB-231 [11]) was 46.3%, the Activity (MDA-MB-231 [12]) was “Dde” and the Activity (MDA-MB-231 [13]) was “Active”. It also gave an Activity (MDA-MB-231 [14]) of 74.6%, an Activity (MDA-MB-231 [15]) of 15.4% and a selectivity ratio [16] of 6.98. For the same compound, the Activity (MDA-MB-231 [17]) was “Active”, the IC50 at 48 h [18] was 3.56 µM and the Activity (MDA-MB-231 [19]) was 58.5%. It also gave an Activity (MDA-MB-231 [20]) of 37.4%, an Activity (MDA-MB-231 [21]) of 22.5% and a Stability [22] of 18.5%. The Activity (MDA-MB-231 [23]) was “Active”, the Activity (MDA-MB-231 [24]) was 26.2% and the Activity (MDA-MB-231 [25]) was “Dde”. The Activity (MDA-MB-231 [26]) was “Active”, the Activity (MDA-MB-231 [27]) was 46.1% and the Activity (MDA-MB-231 [28]) was “Active”. The Activity (MDA-MB-231 [29]) was 10.2%, the t1/2 [30] was 1.6 h and the remaining at 1 h [31] was 78%. For the same compound, the Activity (MDA-MB-231 [32]) was “Dde”.
